Values of other authors, collected in patent US20240165064A1, “LONG-LASTING RESORBABLE SUBCUTANEOUS IMPLANT WITH PROLONGED RELEASE OF PRE-CONCENTRATED PHARMACOLOGICALLY ACTIVE SUBSTANCE IN POLYMER FOR THE TREATMENT OF HYPOTHYROIDISM, AND METHOD” (priority 2021, published 2024).

Test system: patients with primary hypothyroidism
[1] = T3 group compared to T4 group, 6 weeks

For `N[C@@H](Cc1cc(I)c(Oc2ccc(O)c(I)c2)c(I)c1)C(=O)O` [T3, triiodothyronine], which “weight lost on average more than the group receiving T4 treatment” value (14 patients, three times a day for 6 weeks, T3 group compared to T4 group) is on record?
The value was 1.8 ± 1.9 kg.

And the “decrease in low density cholesterol (non-HDL)” value [1]?
The value was 13.3±12.1%.

And the “decrease in total cholesterol” value [1]?
Its value is 10.9±10.0%.

What about the “reduction in apolipoprotein B” value [1] of the same compound?
The value was 18.3±28.6%.

And the side effects (T3 treatment compared to T4 treatment, 6 weeks)?
Its side effects is “without presenting significant side effects”.
